Results taken from the NIST ThermoML archive (doi:10.1021/je700339f).
Numbers after ± are expanded uncertainties.

Experiment: xn = mol fraction of the nth substance listed
Conditions: 298 K, Liquid

ClCCCl [1,2-dichloroethane] + CC(=O)N(C)C
mass density [kg/m3]
Conditions | x2 = 0.0977 | x2 = 0.2003 | x2 = 0.2988 | x2 = 0.4022 | x2 = 0.4999 | x2 = 0.6007 | x2 = 0.7008 | x2 = 0.7988 | x2 = 0.8997
100 kPa | 1210 ± 7.2 | 1174.4 ± 7.1 | 1141.3 ± 6.9 | 1107.9 ± 6.7 | 1077.4 ± 6.5 | 1047.1 ± 6.2 | 1018.1 ± 6.1 | 990.5 ± 5.9 | 963.2 ± 5.8
500 kPa | 1210.4 ± 7.2 | 1174.8 ± 7.1 | 1141.6 ± 6.9 | 1108.2 ± 6.7 | 1077.7 ± 6.5 | 1047.4 ± 6.2 | 1018.4 ± 6.1 | 990.8 ± 5.9 | 963.4 ± 5.8
1000 kPa | 1210.9 ± 7.3 | 1175.2 ± 7.1 | 1142.1 ± 6.9 | 1108.7 ± 6.7 | 1078 ± 6.5 | 1047.7 ± 6.2 | 1018.7 ± 6.1 | 991.1 ± 5.9 | 963.8 ± 5.8
1500 kPa | 1211.3 ± 7.3 | 1175.6 ± 7.1 | 1142.5 ± 6.9 | 1109 ± 6.7 | 1078.4 ± 6.5 | 1048.1 ± 6.2 | 1019.1 ± 6.1 | 991.4 ± 5.9 | 964.1 ± 5.8
2000 kPa | 1211.8 ± 7.3 | 1176 ± 7.2 | 1142.9 ± 6.9 | 1109.5 ± 6.7 | 1078.8 ± 6.5 | 1048.4 ± 6.3 | 1019.4 ± 6.1 | 991.8 ± 5.9 | 964.4 ± 5.8
2500 kPa | 1212.2 ± 7.3 | 1176.5 ± 7.2 | 1143.3 ± 6.9 | 1109.9 ± 6.7 | 1079.2 ± 6.5 | 1048.8 ± 6.3 | 1019.8 ± 6.1 | 992 ± 5.9 | 964.7 ± 5.8
3000 kPa | 1212.6 ± 7.3 | 1176.9 ± 7.1 | 1143.8 ± 6.9 | 1110.2 ± 6.7 | 1079.6 ± 6.5 | 1049.1 ± 6.3 | 1020.1 ± 6.1 | 992.4 ± 5.9 | 965 ± 5.8
3500 kPa | 1213.2 ± 7.3 | 1177.3 ± 7.2 | 1144.1 ± 6.9 | 1110.6 ± 6.7 | 1080 ± 6.5 | 1049.5 ± 6.3 | 1020.5 ± 6.1 | 992.7 ± 5.9 | 965.3 ± 5.8
4000 kPa | 1213.6 ± 7.3 | 1177.7 ± 7.2 | 1144.6 ± 6.9 | 1111 ± 6.7 | 1080.4 ± 6.5 | 1049.8 ± 6.3 | 1020.9 ± 6.1 | 993.1 ± 5.9 | 965.6 ± 5.8
4500 kPa | 1214 ± 7.3 | 1178.2 ± 7.2 | 1144.8 ± 6.9 | 1111.5 ± 6.7 | 1080.8 ± 6.5 | 1050.1 ± 6.3 | 1021.1 ± 6.1 | 993.4 ± 5.9 | 965.9 ± 5.8
5000 kPa | 1214.5 ± 7.3 | 1178.6 ± 7.2 | – | – | – | – | – | – | –
